Tests used:
Experiment in all cases: Test C preemergence
blackgrass = assay type: in vivo, Alopecurus myosuroides; details: for Blackgrass plant response rating: preemergence; for Plant response rating, Blackgrass: Preemergence, 31 g ai/ha, scale 0 to 100, 0 no effect, 100 complete control
In short: (§1)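 Plants were kept under greenhouse conditions for 13–15 days following spray. Pre-emergent application went to soil (loam–sand), post-emergent to foliage at 1–4 leaves. Evaluation: visual, percent control against untreated checks.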

Italian ryegrass = assay type: in vivo, Lolium multiflorum; details: for Ryegrass, Italian plant response rating: preemergence; for Plant response rating, Ryegrass, Italian: Preemergence, 31 g ai/ha, scale 0 to 100, 0 no effect, 100 complete control
In short: as §1

wheat, winter = assay type: in vivo, Triticum aestivum; details: for Wheat plant response rating: preemergence; for Plant response rating, Wheat: Preemergence, 31 g ai/ha, scale 0 to 100, 0 no effect, 100 complete control
In short: as §1

large (Lg) crabgrass = assay type: in vivo, Digitaria sanguinalis; details: for Crabgrass, Large plant response rating: preemergence; for Plant response rating, Crabgrass, Large: Preemergence, 31 g ai/ha, scale 0 to 100, 0 no effect, 100 complete control
In short: as §1

giant foxtail = assay type: in vivo, Setaria faberii; details: for Foxtail, Giant plant response rating: preemergence; for Plant response rating, Foxtail, Giant: Preemergence, 31 g ai/ha, scale 0 to 100, 0 no effect, 100 complete control
In short: as §1

johnsongrass = assay type: in vivo, Sorghum halepense; details: for Johnsongrass plant response rating: preemergence; for Plant response rating, Johnsongrass: Preemergence, 31 g ai/ha, scale 0 to 100, 0 no effect, 100 complete control
In short: as §1

pigweed = assay type: in vivo, Amaranthus retroflexus; details: for Pigweed plant response rating: preemergence; for Plant response rating, Pigweed: Preemergence, 31 g ai/ha, scale 0 to 100, 0 no effect, 100 complete control
In short: as §1

ragweed = assay type: in vivo, Ambrosia elatior; details: for Ragweed plant response rating: preemergence; for Plant response rating, Ragweed: Preemergence, 31 g ai/ha, scale 0 to 100, 0 no effect, 100 complete control
In short: as §1

soybean = assay type: in vivo, Glycine max; details: for Soybean plant response rating: preemergence; for Plant response rating, Soybean: Preemergence, 31 g ai/ha, scale 0 to 100, 0 no effect, 100 complete control
In short: as §1

barnyardgrass = assay type: in vivo, Echinochloa crus-galli; details: for Barnyardgrass plant response rating: preemergence; for Plant response rating, Barnyardgrass: Preemergence, 31 g ai/ha, scale 0 to 100, 0 no effect, 100 complete control
In short: as §1

oilseed rape = assay type: in vivo, Brassica napus; details: for Oilseed Rape plant response rating: preemergence; for Plant response rating, Oilseed Rape: Preemergence, 31 g ai/ha, scale 0 to 100, 0 no effect, 100 complete control
In short: as §1

waterhemp = assay type: in vivo, Amaranthus rudis; details: for Waterhemp plant response rating: preemergence; for Plant response rating, Waterhemp: Preemergence, 31 g ai/ha, scale 0 to 100, 0 no effect, 100 complete control
In short: as §1

velvetleaf = assay type: in vivo, Abutilon theophrasti; details: for Velvetleaf plant response rating: preemergence; for Plant response rating, Velvetleaf: Preemergence, 31 g ai/ha, scale 0 to 100, 0 no effect, 100 complete control
In short: as §1

[1] = 16 g ai/ha, scale 0 to 100 (0 no effect, 100 complete control)
[2] = 62 g ai/ha, scale 0 (no effect) to 100 (complete control)
[3] = 125 g ai/ha, scale 0 (no effect) to 100 (complete control)

Fc1cnc(Oc2cccc(C(F)F)c2-n2cc(Cl)cn2)nc1 [Compound 94]
5: Blackgrass plant response rating (blackgrass; [1]) | Wheat plant response rating (wheat, winter; [3]) | Foxtail, Giant plant response rating (giant foxtail; [1]) | Barnyardgrass plant response rating (barnyardgrass; [1])
20: Plant response rating, Blackgrass (blackgrass)
70: Johnsongrass plant response rating (johnsongrass; [3])
10: Ryegrass, Italian plant response rating (Italian ryegrass; [2]) | Ragweed plant response rating (ragweed; [2]) | Plant response rating, Barnyardgrass (barnyardgrass)
90: Blackgrass plant response rating (blackgrass; [2]) | Blackgrass plant response rating (blackgrass; [3]) | Pigweed plant response rating (pigweed; [1])
98: Plant response rating, Crabgrass, Large (large (Lg) crabgrass) | Oilseed Rape plant response rating (oilseed rape; [2]) | Oilseed Rape plant response rating (oilseed rape; [3]) | Plant response rating, Oilseed Rape (oilseed rape)
80: Waterhemp plant response rating (waterhemp; [1])
50: Ryegrass, Italian plant response rating (Italian ryegrass; [3]) | Plant response rating, Soybean (soybean)
0: Ryegrass, Italian plant response rating (Italian ryegrass; [1]) | Plant response rating, Ryegrass, Italian (Italian ryegrass) | Wheat plant response rating (wheat, winter; [1]) | Wheat plant response rating (wheat, winter; [2]) | Plant response rating, Wheat (wheat, winter) | Johnsongrass plant response rating (johnsongrass; [1]) | Ragweed plant response rating (ragweed; [1]) | Plant response rating, Ragweed (ragweed)
40: Velvetleaf plant response rating (velvetleaf; [1])
35: Johnsongrass plant response rating (johnsongrass; [2]) | Soybean plant response rating (soybean; [1])
100: Crabgrass, Large plant response rating (large (Lg) crabgrass; [2]) | Crabgrass, Large plant response rating (large (Lg) crabgrass; [3]) | Foxtail, Giant plant response rating (giant foxtail; [2]) | Foxtail, Giant plant response rating (giant foxtail; [3]) | Pigweed plant response rating (pigweed; [2]) | Pigweed plant response rating (pigweed; [3]) | Plant response rating, Pigweed (pigweed) | Barnyardgrass plant response rating (barnyardgrass; [3]) | Waterhemp plant response rating (waterhemp; [2]) | Waterhemp plant response rating (waterhemp; [3]) | Plant response rating, Waterhemp (waterhemp) | Velvetleaf plant response rating (velvetleaf; [2]) | Velvetleaf plant response rating (velvetleaf; [3]) | Plant response rating, Velvetleaf (velvetleaf)
85: Soybean plant response rating (soybean; [2]) | Barnyardgrass plant response rating (barnyardgrass; [2]) | Oilseed Rape plant response rating (oilseed rape; [1])
65: Plant response rating, Foxtail, Giant (giant foxtail)
95: Soybean plant response rating (soybean; [3])
25: Crabgrass, Large plant response rating (large (Lg) crabgrass; [1]) | Plant response rating, Johnsongrass (johnsongrass) | Ragweed plant response rating (ragweed; [3])

N#Cc1cccc(Oc2ncc(Cl)cn2)c1-n1cc(OC(F)F)cn1 [Compound 97]
40: Plant response rating, Johnsongrass (johnsongrass) | Velvetleaf plant response rating (velvetleaf; [1])
98: Crabgrass, Large plant response rating (large (Lg) crabgrass; [1]) | Soybean plant response rating (soybean; [3]) | Oilseed Rape plant response rating (oilseed rape; [2])
95: Soybean plant response rating (soybean; [2]) | Plant response rating, Barnyardgrass (barnyardgrass) | Plant response rating, Velvetleaf (velvetleaf)
85: Ryegrass, Italian plant response rating (Italian ryegrass; [2]) | Ragweed plant response rating (ragweed; [2]) | Oilseed Rape plant response rating (oilseed rape; [1]) | Plant response rating, Oilseed Rape (oilseed rape)
60: Plant response rating, Ryegrass, Italian (Italian ryegrass) | Wheat plant response rating (wheat, winter; [2]) | Foxtail, Giant plant response rating (giant foxtail; [1])
90: Blackgrass plant response rating (blackgrass; [2]) | Blackgrass plant response rating (blackgrass; [3]) | Ryegrass, Italian plant response rating (Italian ryegrass; [3]) | Wheat plant response rating (wheat, winter; [3]) | Johnsongrass plant response rating (johnsongrass; [2]) | Johnsongrass plant response rating (johnsongrass; [3]) | Plant response rating, Soybean (soybean) | Oilseed Rape plant response rating (oilseed rape; [3])
50: Soybean plant response rating (soybean; [1])
70: Plant response rating, Blackgrass (blackgrass)
35: Ragweed plant response rating (ragweed; [1]) | Plant response rating, Ragweed (ragweed) | Barnyardgrass plant response rating (barnyardgrass; [1])
100: Crabgrass, Large plant response rating (large (Lg) crabgrass; [2]) | Crabgrass, Large plant response rating (large (Lg) crabgrass; [3]) | Plant response rating, Crabgrass, Large (large (Lg) crabgrass) | Foxtail, Giant plant response rating (giant foxtail; [2]) | Foxtail, Giant plant response rating (giant foxtail; [3]) | Plant response rating, Foxtail, Giant (giant foxtail) | Pigweed plant response rating (pigweed; [1]) | Pigweed plant response rating (pigweed; [2]) | Pigweed plant response rating (pigweed; [3]) | Plant response rating, Pigweed (pigweed) | Ragweed plant response rating (ragweed; [3]) | Barnyardgrass plant response rating (barnyardgrass; [2]) | Barnyardgrass plant response rating (barnyardgrass; [3]) | Waterhemp plant response rating (waterhemp; [1]) | Waterhemp plant response rating (waterhemp; [2]) | Waterhemp plant response rating (waterhemp; [3]) | Plant response rating, Waterhemp (waterhemp) | Velvetleaf plant response rating (velvetleaf; [2]) | Velvetleaf plant response rating (velvetleaf; [3])
0: Blackgrass plant response rating (blackgrass; [1]) | Ryegrass, Italian plant response rating (Italian ryegrass; [1]) | Wheat plant response rating (wheat, winter; [1])
10: Plant response rating, Wheat (wheat, winter) | Johnsongrass plant response rating (johnsongrass; [1])
